This is an account of results in paper PMC9828099, “Aromatic disulfides as potential inhibitors against interaction between deaminase APOBEC3G and HIV infectivity factor” (Acta Biochimica et Biophysica Sinica, 2022).

The subject of one test is Vif. The settings on record: fluorescent intensity of 293T cells; read-out: IC50, inhibition of Vif activity; cited from earlier work.
In a further test the test system is HIV-1. The following applies: MT4 and MAGI cells; cited from earlier work.
In test [1] the test system is interaction between A3G and Vif. On the set-up: method as in PMID 25724652. The settings on record: read-out: IC50, block of interaction between A3G and Vif; cited from earlier work.
In test [2] the target is full-length APOBEC3G (A3G-FL) (UniProt Q9HC16). Put plainly: SPR.
A further test deals with T1, rVif (Human immunodeficiency virus type 1 group M subtype B, UniProt P12504).
T1 construct: The cDNAs of full-length Vif (residues 1–192) was sub-cloned into the vector pET28a; made in house
T1 sequence (P12504 whole entry, the tested form may be a part): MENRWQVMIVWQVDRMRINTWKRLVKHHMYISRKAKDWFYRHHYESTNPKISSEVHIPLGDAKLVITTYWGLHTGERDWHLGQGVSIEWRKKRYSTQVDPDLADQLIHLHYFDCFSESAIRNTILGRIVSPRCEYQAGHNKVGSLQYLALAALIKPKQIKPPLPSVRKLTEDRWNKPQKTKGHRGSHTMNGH
Format: binding, HIV-1. The settings on record: SPR 1st round screening, small molecules at 500 μM. How it is done:
(§1) Small molecules in the concentration of 500 μM were injected at 30 μL/min. The contact time is 100 s and dissociation time is 120 s. The chip was regenerated by glycine (pH 1.5) at a flow rate of 30 μL/min (30 s contact time). Then small molecules with high RU were selected to perform the 2 ^nd round screening. […] The data analyses were performed by BIAcore Evaluation.

For another test, the target named is T2, A3G-sNTD (Homo sapiens, UniProt Q9HC16).
T2 sequence (Q9HC16 1-196): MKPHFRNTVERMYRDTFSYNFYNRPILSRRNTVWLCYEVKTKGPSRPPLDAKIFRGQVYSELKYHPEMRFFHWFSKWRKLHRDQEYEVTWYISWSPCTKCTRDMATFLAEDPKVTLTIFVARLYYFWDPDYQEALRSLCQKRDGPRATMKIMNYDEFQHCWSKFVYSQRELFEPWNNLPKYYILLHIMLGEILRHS
The experiment in a line: SPR binding of small molecules to A3G-sNTD. The following applies: read-out: KD, binding affinity to A3G-sNTD. How it is done:
as §1

In the case of `COc1ccccc1NC(=O)c1ccccc1Sc1ccc([N+](=O)[O-])cc1` [RN-18], in the test on Vif, the IC50 is 4.5 µM.
For the compound `O=C(O)Cn1c2c(c3c1=C(c1ccc(O)c(O)c1)C(=O)c1cc(O)c(O)cc1-3)-c1cc(O)c(O)cc1C(=O)C=2c1ccc(O)c(O)c1` [Baculiferin L], in the test with HIV-1, the “IC50, HIV-1 replication” value was 0.5 to 7 µg/mL.
As to `C/C(=C/C(=O)c1cccnc1)Nc1ccc(O)cc1` [N.41], the IC50 in test [1] is 2.18 µM.
Turning to “Vif-CBFβ-ELOB-ELOC (VCBC) complex (from UniProt P12504;Q13951;Q15370;Q15369)”, the dissociation constant Kd in test [2] amounted to 0.00071 µM.
As for `O=C(O)Cn1c2c(c3c1=C(c1ccc(O)c(O)c1)C(=O)c1cc(O)c(OS(=O)(=O)O)cc1-3)-c1cc(O)c(O)cc1C(=O)C=2c1ccc(O)c(O)c1` [Baculiferin M], in the test on HIV-1, the “IC50, HIV-1 replication” value was 0.5 to 7 µg/mL.
Regarding `CCCCn1c(SCc2c(C)noc2C)nc2cc(S(N)(=O)=O)ccc21` [MM-2], the “relative response value of binding to rVif” value on rVif was determined as 130.4 RU. Further, at A3G-sNTD, the Kd was 19.9 ± 11 µM.
